{
  "source": "patent US12391919B2",
  "about": "“Culture medium, coating matrix and method for maturing midbrain dopaminergic progenitor cells” (NUWACELL BIOTECHNOLOGIES CO., LTD., priority 2022, dated 2025)",
  "test_system": "imDAPs",
  "assay": "Flow cytometry (FACS) analysis of FOXA2 expression in expanded imDAPs",
  "format": "cell-based, human",
  "description": "• 1. Individualize and collect cells by either Accutase or TrypLE treatment. • 2. Wash cells with 1 ml PBS and pellet cells at 250×g for 15 sec. • 3. Remove supernatant, add ˜200 μl of 4% PFA, mix and fix for 10 min at RT. • 4. Pellet cells at 350×g for 5 min. • 5. Wash cells by 1 ml of FACS buffer and pellet cells at 350×g for 5 min. • 6. Remove supernatant, add 200 μl/tube of FACS buffer/0.1% TritonX, mix for 10 min at RT. • 7. Wash cells by 1 ml of FACS buffer and pellet cells at 350×g for 5 min. • 8. Remove supernatant, add 200 μl/tube of primary antibody diluted in FACS buffer, mix gently, and incubate for 30 min at RT. • 9. Wash cells by 1 ml of FACS buffer and pellet cells at 350×g for 5 min. • 10. Remove supernatant, and add 200 μl of secondary antibody diluted in FACS buffer, mix gently, and incubate for 30 min at RT. • 11. Wash cells by 1 ml of FACS buffer and pellet cells at 300×g for 5 min. • 12. Remove supernatant, add 200 μl of FACS buffer, and run samples on the flow cytometry. (2) qRT-PCR • 1. For qRT-PCR analysis of mRNA gene expression, RNA should be harvested from at least 2×10^6 cells. • 2. Harvest cells, add 350 μl of buffer RLT+1% (vol/vol) s-mercaptoethanol to the well, transfer the lysate to a 1.5 ml tube, and put it immediately on ice. • 3. Perform RNA extraction using the Tiangen Kit (DP430), and follow the manufacturer's protocol ‘Purification of total RNA from animal and human cells’. • 4. When the RNA extraction was completed, determine the RNA concentration using a Nanodrop instrument. • 5. Perform the first-strand cDNA synthesis reaction with 1 μg of RNA using the HiScript TM II Q RT SuperMIX for qPCR(+gDNA wiper) Kit (Vazyme, #R223-01) for RT-qPCR. Follow the manufacturer's ‘First-Strand cDNA Synthesis’ protocol. This reaction would yield a 20 μl product. • 6. Dilute the 10 μl cDNA product in 80 μl of nuclease-free water. • 7. Pipette the diluted cDNA product (1 μl), Sybr green master mix (5 μl, Transgen, #AQ131) and 0.95 μM reverse/forward primer mix (4 μl) into a 384-well PCR plate in triplicate, either manually or using an automated pipetting robot. The complete primer panel included the target genes and the housekeeping gene (RPL13A). In the analysis, also included a sample of undifferentiated hPSCs to determine the gene expression levels relative to the expression in hPSCs. • 8. Analyze the samples by running a quantitative PCR on the LightCycler 480 instrument using a 40× cycle two-step protocol with a 60° C., 60 sec annealing/elongation step and a 95° C., 30 sec denaturation step. The average CT values from the three technical replicates were used for calculations of relative gene expression using the ΔΔCT method. For each gene, calculate the FC of the differentiated samples relative to the undifferentiated control sample using the housekeeping gene for normalization. Next, calculate the average of the FC values on the basis of the housekeeping gene. (3) Immunocytochemical Analysis • 1. Cell fixation: Remove the medium from the cells and wash with PBS. Add 4% (wt/vol) PFA (e.g., 200 μl to a well in a 48-well plate) and incubate at room temperature (RT) for 15 min. after incubation, wash the cells three times in PBS. • 2. Blocking: Remove PBS from the wells and add blocking solution to the cells, add enough volume to cover the cells. Leave the cells in blocking solution for 1 h at RT. • 3. Primary antibodies incubation: Remove the blocking solution from the cells and add the primary antibody solutions (˜100 μl/cm^2). […]",
  "data": [
    {"compound": "c1ccc2c(-c3cnn4cc(-c5ccc(N6CCNCC6)cc5)cnc34)ccnc2c1", "note": "[LDN193189]", "values": [
      {"measurement": "expression of Foxa2 (percentage of Foxa2+ imDAPs)", "setting": "Example 9, P1 cells compared with P0 cells, DLL4/VTN-coated, FIG. 5C", "value": "slightly decreased the expression of FOXA2 for imDAPs"}
    ]},
    {"compound": "DLL4: Notch agonist used as second coating matrix", "values": [
      {"measurement": "FOXA2 expression (percentage of Foxa2+ imDAPs)", "setting": "Example 8, VTN or DLL4/VTN coating, with or without SB431542, FIG. 4C", "value": "could improve FOXA2 expression"}
    ]}
  ]
}
